{"source": "patent US4084006A", "about": "“Method of using dialkylphenols an antiviral agents” (priority 1977, dated 1978)", "key": {"[1]": {"system": "chronic respiratory disease (CRD)", "assay": "Treatment of chronic respiratory disease in inbred GM rats; for Dead animals: tested at 0.001 ppm; for Ill animals: tested at 0.001 ppm; for Well animals: tested at 0.001 ppm; for new born rats, all appeared healthy: tested at 0.001 ppm; for total number of rats in colony: tested at 0.001 ppm", "type": "in vivo, rat (GM)", "method": "One-half of a colony of spontaneously hypertensive (SH) rats was treated with 2,4-dimethylphenol in their drinking water at a concentration of one part per billion. The other half of this colony was given only tap water, and both groups observed for 76 days. The second experiment was with a highly inbred strain (GM) of rats that were about to expire, because of chronic respiratory infection. […] Both groups, the SH rats and the GM rats, were not breeding because of their infections and were in seriously poor health.\nThe second experiment was run concurrently with Example 36, but this time the animals were the highly inbred GM strain. A number of these animals were ill with chronic respiratory disease and unable to breed. These rats were randomly divided into two groups of 26 each. The experimental group received 1 PPB of the 2,4-dimethylphenol in their drinking water and the control group received only tap water."}, "[2]": {"system": "pneumonia virus of mice (PVM)", "assay": "Serum PVM titers in rats", "type": "in vivo, pneumonia virus of mice (host: rat)", "details": "for Mycoplasma infected rats that failed to show titers for PVM: sera of 19 infected rats", "from_the_text": "(§1) Attempts were made to test the effect of infecting rats with Mycoplasma pulmonis (ATCC 19612) so that they could transmit the disease to their cage mates and, also allowed them to breed. This was also done to test if the mothers would pass the infection on to their litters. These rats were purchased from a laboratory in Indianapolis, Indiana and they were divided into 6 groups with male animals in each group. In the 5 experimental groups, a total of 15 female rats out of 30, and in the control group 4 female rats out of 8 were infected intranasally with Mycoplasma pulmonis (ATCC 19612). There were two male rats per experimental group and 3 for the controls totaling 13 male rats, and none of these were infected with M. pulmonis.\n(§2) The experimental groups (8 rats each) and control group were treated as follows:\nAll rats were fed ad libitum rat chow, and their cages were cleaned 5-6 times weekly. For the 5 experimental groups, the 2,4 DMP was dissolved in distilled water used for their drinking fluid while the control only received distilled water. There were times when the rats spilled excessive amounts of their drinking water and this caused a certain amount of the phenol to be evaporated from these cages, particularly those groups receiving the higher concentrations of the phenol. This way, it was possible for the controls to inhale a small but indefinite amount of the phenol which is volatile. All animals were kept in the same laboratory room.\nAll the male animals (13) were sacrificed after 14 days, and after impregnating the females. Their blood was collected by heart puncture, and the animals lungs were saved in 10% formalin for pathology. All the female rats (18) that were not infected, except one, intranasally with M. pulmonis were sacrificed 30 days post infection of their cage mates. All the young born to these rats (non-infected), during this time were also sacrificed. The blood and lungs from the adult females were saved for study.\nThe 19 female rats infected with M. pulmonis and one non-infected female were allowed to raise their litters so that the young could be weaned, and then they were sacrificed 58 days post infection, saving their blood and lungs for study.\nWhen the offsprings from the M. pulmonis infected mothers were 40-50 days old a proportionate number selected at random were sacrificed, saving blood and lungs for study:\nThe serum of each rat sacrificed was tested for antibodies for Mycoplasma. […] One of these rats was in the group receiving one part per million of the phenol and other was a control. Therefore, it was concluded that the Mycoplasma pulmonis was not the cause of the lung infection in these rats, but there was still enough pathology evident in these lungs to suspect some unknown infection. Consequently, the serum of the control rat showing a low titer for Mycoplasma pulmonis was screened by a commercial laboratory for virus infections commonly associated with rats.\nAll blood serums saved from these experiments were tested for PVM titers. Sera from eight of the 13 males sacrificed at 14 days had detectable titers. All three of these controls had titers indicating PVM infection leaving 5 treated rats with titers for PVM. In the 18 non-infected female rats that were sacrificed after 30 days two rats were negative for PVM titers, one was in the 1 PPM and the other was in the 1 PPB treated groups."}, "[3]": {"system": "Mycoplasma pulmonis (ATCC 19612)", "assay": "Serum antibodies for Mycoplasma in rats", "type": "in vivo, Mycoplasma pulmonis (host: rat)", "details": "one part per million; two of 19 infected rats in all groups, the other a control", "from_the_text": "as §1, §2\nAll rats were fed ad libitum rat chow, and their cages were cleaned 5-6 times weekly. For the 5 experimental groups, the 2,4 DMP was dissolved in distilled water used for their drinking fluid while the control only received distilled water. There were times when the rats spilled excessive amounts of their drinking water and this caused a certain amount of the phenol to be evaporated from these cages, particularly those groups receiving the higher concentrations of the phenol. […]"}, "San Carlos virus": {"system": "San Carlos virus", "assay": "Dimethylphenols against San Carlos virus in tissue culture (human embryonic lung), CPE", "type": "cell-based, San Carlos virus (adenovirus)", "details": "for CPE with TCID50 doses of San Carlos virus: human embryonic lung, 100 TCID50"}, "[4]": {"details": "day 58, 1 PPB in drinking water, GM rats"}, "[5]": {"details": "day 66, 1 PPB in drinking water, GM rats"}, "[6]": {"details": "day 73, 1 PPB in drinking water, GM rats"}, "[7]": {"details": "day 80, 1 PPB in drinking water, GM rats"}, "[8]": {"details": "over 2.5 years, 1 PPB in drinking fluid, combined GM groups"}}, "data": [{"smiles": "Cc1ccc(O)c(C)c1", "note": "[2,4-dimethylphenol]", "values": [{"measurement": "new born rats, all appeared healthy", "setting": "[1]; by day 150, 1 PPB in drinking water, GM rats", "result": 31}, {"measurement": "breeding of experimental group", "setting": "[1]; by day 150, 1 PPB, GM rats, control group did not start breeding", "result": "began to breed"}, {"measurement": "Ill animals", "setting": "[1]; [4]", "result": 3}, {"measurement": "Well animals", "setting": "[1]; [4]", "result": 23}, {"measurement": "Total number of rats", "setting": "[1]; day 58, 1 PPB in drinking water, GM rats, 26 at start", "result": 26}, {"measurement": "Ill animals", "setting": "[1]; [5]", "result": 3}, {"measurement": "Well animals", "setting": "[1]; [5]", "result": 23}, {"measurement": "Total number of rats", "setting": "[1]; day 66, 1 PPB in drinking water, GM rats, 26 at start", "result": 26}, {"measurement": "Ill animals", "setting": "[1]; [6]", "result": 2}, {"measurement": "Well animals", "setting": "[1]; [6]", "result": 24}, {"measurement": "Total number of rats", "setting": "[1]; day 73, 1 PPB in drinking water, GM rats, 26 at start", "result": 26}, {"measurement": "Dead animals", "setting": "[1]; [7]", "result": 1}, {"measurement": "Ill animals", "setting": "[1]; [7]", "result": 0}, {"measurement": "Well animals", "setting": "[1]; [7]", "result": 25}, {"measurement": "Total number of rats", "setting": "[1]; day 80, 1 PPB in drinking water, GM rats, 26 at start", "result": 25}, {"measurement": "Well animals", "setting": "[1]; day 150, 1 PPB in drinking water, GM rats", "result": 53}, {"measurement": "Total number of rats", "setting": "[1]; day 150, 1 PPB in drinking water, GM rats, includes 31 new born", "result": 56}, {"measurement": "Ill animals", "setting": "[1]; day 150, 1 PPB in drinking water, GM rats, only a trace of secretion", "result": 3}, {"measurement": "symptoms of the three rats listed as ill", "setting": "[1]; day 150, 1 PPB, GM rats", "result": "only a trace of secretion"}, {"measurement": "state of colony", "setting": "[1]; [8]", "result": "the colony has continued to thrive"}, {"measurement": "total number of rats in colony", "setting": "[1]; [8]", "result": "about 400"}, {"measurement": "non-infected female rats negative for PVM titers", "setting": "[2]; 1 PPM, sacrificed after 30 days, all controls positive", "result": "one"}, {"measurement": "offspring with detectable titers for PVM", "setting": "[2]; 47 offsprings tested, treated groups and controls exposed to vapors", "result": "not one"}, {"measurement": "effect on PVM", "setting": "[2]; 51 rats purchased, drinking water", "result": "appeared to have had an effect on this virus so as to depress its passage to other animals"}, {"measurement": "Mycoplasma infected rats that failed to show titers for PVM", "setting": "[2]; 100 parts per billion", "result": "two"}, {"measurement": "treated male rats with titers for PVM", "setting": "[2]; males sacrificed at 14 days, all treated groups, all three controls positive", "result": 5}, {"measurement": "Mycoplasma infected rats that failed to show titers for PVM", "setting": "[2]; one part per million", "result": "two"}, {"measurement": "M. pulmonis infected rats with detectable Mycoplasma antibody titers", "setting": "[3]", "result": "One"}, {"measurement": "CPE with TCID50 doses of San Carlos virus", "setting": "San Carlos virus; 10^-6 grams 2X", "result": "3+ (75% of cells infected with selected virus)"}, {"measurement": "CPE with TCID50 doses of San Carlos virus", "setting": "San Carlos virus; 10^-7 grams 2X", "result": "2+ (50% of cells infected with selected virus)"}, {"measurement": "CPE with TCID50 doses of San Carlos virus", "setting": "San Carlos virus; 10^-8 grams 2X", "result": "± (less than 10% infected)"}, {"measurement": "CPE with TCID50 doses of San Carlos virus", "setting": "San Carlos virus; 10^-9 grams 2X", "result": "± (less than 10% infected)"}, {"measurement": "CPE with TCID50 doses of San Carlos virus", "setting": "San Carlos virus; 10^-10 grams 2X", "result": "± (less than 10% infected)"}, {"measurement": "CPE with TCID50 doses of San Carlos virus", "setting": "San Carlos virus; 10^-11 grams 2X", "result": "1+ (25% of cells infected with selected virus)"}, {"measurement": "CPE with TCID50 doses of San Carlos virus", "setting": "San Carlos virus; 10^-12 grams 2X", "result": "1+ (25% of cells infected with selected virus)"}, {"measurement": "CPE with TCID50 doses of San Carlos virus", "setting": "San Carlos virus; 10^-13 grams 2X", "result": "1+ (25% of cells infected with selected virus)"}, {"measurement": "CPE with TCID50 doses of San Carlos virus", "setting": "San Carlos virus; 10^-14 grams 2X", "result": "2+ (50% of cells infected with selected virus)"}, {"measurement": "CPE with TCID50 doses of San Carlos virus", "setting": "San Carlos virus; 10^-15 grams 2X", "result": "2+ (50% of cells infected with selected virus)"}, {"measurement": "anti-viral activity against San Carlos virus", "setting": "San Carlos virus; at various concentrations", "result": "exhibit anti-viral activity"}]}]}
